Measurements reported in patent US20260285849A1, “METHYLOPHIOPOGONONE A DERIVATIVE, AND PREPARATION AND USE THEREOF” (INSTITUTE OF MATERIA MEDICA, CHINESE ACADEMY OF MEDICAL …, priority 2022, published 2026).
Read-outs that look alike come from different tables or passages of the source. Marks after values point to notes of the source that are not given here.

Assays:
Rat H9C2 cardiomyocytes [1] = conditions: for OD: 800 μM ISO 24 h, MTT 570 nm; for Cell survival rate: rat, h9c2 cells, 24 h
Description: (§3) Rat H9C2 cardiomyocytes in the logarithmic growth phase were seeded into 96-well plates at a density of 7×10^4 cells/mL, with 100 μL per well. […] After 24 hours of culture, the drug groups were treated with 800 μM ISO and the corresponding concentrations of drugs. The ISO model group received 800 μM ISO and an equal volume of DMSO, and the blank control group received an equal volume of DMSO. The cells were then cultured for another 24 hours. After removing the supernatant, 100 μL MTT solution (0.5 mg/mL) was added to each well and incubated in the cell culture incubator for 4 hours. After removing the supernatant, 150 μL DMSO was added to each well, mixed by shaking for 10 minutes, and the absorbance was measured at 570 nm using a microplate reader to calculate cell viability. Cell viability (%)=[(As−Ab)/(Ac−Ab)]×100%. As: Experimental well (medium with cells, MTT, ISO); Ac: Control well (medium with cells, MTT, without ISO); Ab: Blank well (medium without cells, MTT, without ISO).

Rat H9C2 cardiomyocytes [2] = assay: cells; conditions: H9c2, 24 h, read-out: Cell survival rate
Description: as §3

[3] = system: mice with isoproterenol (ISO)-induced ischemic heart disease; assay: ISO-induced ischemic heart disease mouse model: serum ANP and NT-proBNP (ELISA); type: in vivo; conditions: 20 mg/kg intragastric once a day 11 days, ISO 40 mg/kg s.c. 7 times
Description: (§1) Male C57BL/6 mice were allowed to acclimate to the environment and then randomly divided into 9 groups, namely the blank control group, the ISO model group, the ISO+diltiazem 20 mg/kg positive control drug group, the ISO+Formula I (0.1, 0.5, 2 mg/kg) groups, and the ISO+Formula II (0.1, 0.5, 2 mg/kg) groups. Mice in the drug administration groups were intragastrically administered the corresponding doses of Formula I and Formula II compounds once a day at the same time. Mice in the positive drug diltiazem group were intragastrically administered the corresponding dose of diltiazem once a day. Mice in the blank control group and the model group were given the same amount of solvent (0.5% CMC-Na). The administration volume was 10 mL/kg, and the administration was continuous for 11 days.
(§2) From the 4th to the 10th day of drug administration, ISO modeling was carried out. The blank control group was subcutaneously injected with normal saline, and mice in the other groups were subcutaneously injected with ISO at a dose of 40 mg/kg (modeling was performed 2 hours after drug administration), for a total of 7 times.
Detection of Myocardial Hypertrophy/Heart Failure Biomarkers: After the drug administration ended, the animals' eyes were enucleated to collect blood. The blood was left to stand at room temperature for 2 hours, and then centrifuged at 3500 rpm for 20 minutes to separate the serum. The contents of serum ANP and NT-proBNP were determined according to the instructions of the ELISA kit.

Rat H9C2 cardiomyocytes [4] = assay: cells; conditions: H9c2, 24 h, read-out: Cell viability
Description: (§4) Rat H9C2 cardiomyocytes in the logarithmic growth phase were seeded at a density of 7×10^4 cells/mL into 96-well plates, with 100 μL per well. […] After 24 hours of culture, the drug treatment groups were respectively added with 50 μM Ang II and the corresponding concentration of the drug. The Ang II model group was added with 50 μM Ang II and an equal volume of DMSO, and the blank control group was added with an equal volume of DMSO. Then, the cells were cultured for another 24 hours. After removing the supernatant, 100 μL of MTT solution (0.5 mg/mL) was added to each well, and the plates were placed in an incubator for 4 hours. After removing the supernatant again, 150 μL of DMSO was added to each well, and the mixture was shaken and mixed evenly for 10 minutes. The absorbance was measured at 570 nm using a microplate reader to calculate the cell viability.
(§5) Cell viability (%)=[(As−Ab)/(Ac−Ab)]×100% • As: Experimental well (culture medium containing cells, MTT, Ang II); • Ac: Control well (culture medium containing cells, MTT, without Ang II); • Ab: Blank well (culture medium without cells, MTT, without Ang II).

H9C2 cardiomyocytes [5] = assay: Angiotensin II (Ang II)-induced cardiomyocyte hypertrophy model, crystal violet, cell surface area; type: cell-based, rat; conditions: 10 μM; 40 μM Ang II 24 h; mean of 5 views
Description: Adjust the H9C2 cardiomyocytes in the logarithmic growth phase to a density of 1.2×10^5 cells/well and inoculate them into six-well plates. […] After culturing for 24 hours, the drug administration groups are added with 40 μM Ang II and the corresponding concentrations of drugs. The Ang II+diltiazem 10 μM group is added with 40 μM Ang II and 10 μM diltiazem. The Ang II model group is added with 40 μM Ang II and an equal volume of DMSO. The blank control group is added with an equal volume of DMSO. Then, continue culturing for 24 hours. Discard the culture medium, wash the cells 3 times with PBS. Add 1 mL of methanol to each well and fix the cells at −20° C. for 20 minutes, and then let them return to room temperature. After discarding the methanol, add 1 mL of 0.5% crystal violet staining solution to each well and stain for 10 minutes. Wash the cells with clean water and take pictures under an inverted microscope. Randomly select fields of view for photographing. Use Image J software to measure the sum of the surface areas of all cardiomyocytes in the field of view and count the number of cells in the field of view at the same time to obtain the surface area of each cardiomyocyte. The surface area of a single cardiomyocyte=the sum of the surface areas of all cardiomyocytes in the field of view/the number of cardiomyocytes in the field of view.

[6] = system: mice with isoproterenol (ISO)-induced ischemic heart disease; assay: ISO-induced ischemic heart disease mouse model: serum CK-MB (ELISA); type: in vivo; conditions: 20 mg/kg intragastric once a day 11 days
Description: as §1, §2
Myocardial enzyme CK-MB detection: After the administration ended, blood was collected from the animals by enucleation. The blood was left to stand at room temperature for 2 hours, and then centrifuged at 3500 rpm for 20 minutes to separate the serum. The content of CK-MB in the serum was determined according to the instructions of the ELISA kit.

H9C2 cardiomyocytes [7] = assay: cells; conditions: Rattus norvegicus, H9c2, read-out: Cell viability
Description: (§6) H9C2 cardiomyocytes in the logarithmic growth phase were seeded into 96-well plates at a density of 7×10^4 cells/mL, with 100 μL per well.
(§7) After 24 hours of culture, the culture medium of the H/R and drug-treated groups was replaced with serum-free glucose-free DMEM medium (100 μL per well). The cells were then placed in an anaerobic incubator and cultured under hypoxic conditions in a 37° C. cell culture incubator. After 6 hours, the supernatant of the H/R and drug-treated groups was removed and replaced with high-glucose medium containing 10% fetal bovine serum (100 μL per well). Each drug-treated group received the corresponding concentration of the drug, while the H/R model group and the blank control group received an equal volume of DMSO.
(§8) After removing the supernatant, 100 μL of CCK solution (the volume of CCK accounted for 10% of the DMEM culture medium volume) was added to each well. The cells were cultured in the cell culture incubator for 1 hour, and the absorbance was measured at 450 nm using a microplate reader to calculate the cell viability. Cell viability was calculated as follows: Cell viability (%)=(Experimental well-Blank well)/(Control well-Blank well)×100%.

[8] = system: mice with isoproterenol (ISO)-induced ischemic heart disease; assay: ISO-induced ischemic heart disease mouse model: myocardial tissue pathology (H&E); type: in vivo; conditions: 20 mg/kg, H&E
Description: as §1, §2
Pathological detection of myocardial tissue: After the experiment ended, the heart was washed with ice-cold physiological saline and dried with absorbent paper. It was then cut transversely into two halves. One-third of the part closer to the apex of the heart was fixed in a 4% paraformaldehyde solution. After dehydration with gradient ethanol and clearing with xylene, it was immersed in melted paraffin three times for embedding, 30 minutes each time. After embedding, continuous sections (about 4 μm thick) were made. Routine hematoxylin and eosin (H.E.) staining was performed. The pathological state of the myocardial tissue was observed under an optical microscope, photographed, and analyzed.
• −: No abnormalities were observed. • +: No myocardial tissue damage was seen. There was local hypertrophy of cardiomyocytes in the interventricular septum and papillary muscles, local edema and degeneration of cardiomyocytes, widening of the local muscle space in the lesion area, and mild non-specific inflammation in the interstitium. • ++: No obvious myocardial tissue damage (cardiomyocyte necrosis) was observed. There was local hypertrophy of cardiomyocytes in the interventricular septum and papillary muscles, local edema and degeneration of cardiomyocytes. Myofibril dissolution (disappearance of cross-striations) could be seen in local areas. The lesions were relatively limited and distributed in small foci. Non-specific inflammation was visible in the interstitium, and local fibrous tissue hyperplasia in the interstitium was noted. • +++: There was obvious hypertrophy of cardiomyocytes in the interventricular septum and papillary muscles, local edema and degeneration of cardiomyocytes. […] The lesion was limited to the subendocardium of the local interventricular septum (or papillary muscle), with a limited and small affected area. Non-specific inflammation was visible in the interstitium of the lesion area, and local fibrous tissue hyperplasia in the interstitium was noted. • ++++: The hypertrophy of cardiomyocytes in the interventricular septum and papillary muscles is remarkable. Locally, there is edema and degeneration of cardiomyocytes; there is obvious damage (necrosis of cardiomyocytes) in the myocardial tissue of the local interventricular septum and papillary muscles. The lesions are distributed in foci (or small patches), and the affected area is relatively large. […] Locally, there is edema and degeneration of cardiomyocytes; the damage (necrosis of cardiomyocytes) of the myocardial tissue of the local interventricular septum and papillary muscles is severe. The damage (necrosis) lesions are distributed in patches and are connected to each other. Transmural myocardial tissue damage of the interventricular septum and papillary muscles can be seen locally.

Rat H9C2 cardiomyocytes [9] = conditions: for OD: 10 μM, 50 μM Ang II 24 h, MTT 570 nm
Description: as §4, §5

[10] = system: mice with isoproterenol (ISO)-induced ischemic heart disease; assay: ISO-induced ischemic heart disease mouse model: Ca2+ in myocardial tissue; type: in vivo; conditions: 20 mg/kg intragastric once a day 11 days
Description: as §1, §2
Calcium ion detection in myocardial tissue: After the experiment ended, some myocardial tissue was taken to prepare a 10% myocardial tissue homogenate with ultrapure water. The homogenate was centrifuged at 1200 rpm for 20 minutes at 4° C. to separate the supernatant of the myocardial tissue homogenate. The calcium ion content was determined according to the kit instructions; protein quantification was performed using the BCA protein assay method.

H9C2 cardiomyocytes [11] = conditions: for OD: 6 h hypoxia, 12 h reoxygenation, CCK 450 nm; for Cell viability: rat, h9c2 cells
Description: as §6, §7, §8

For `COc1ccc([C@@H]2Sc3ccccc3N(CCN(C)C)C(=O)[C@@H]2OC(C)=O)cc1` [Diltiazem, reference compound], the OD (Rat H9C2 cardiomyocytes [1]; 10 μM) was 0.773 ± 0.029, the viability at 10 µM (Rat H9C2 cardiomyocytes [2]) was 63.9% and the ANP [3] was 361.59 ± 46.95^ pg/mL. For the same compound, the NT-proBNP [3] was 43.12 ± 2.93 pg/mL, the viability at 10 µM (Rat H9C2 cardiomyocytes [4]) was 79.7% and the Myocardial surface area (H9C2 cardiomyocytes [5]) was 392.02 ± 19.37^### μm^2. For the same compound, the CK-MB [6] was 17.98 ± 2.88 ng/mL, the viability at 10 µM (H9C2 cardiomyocytes [7]) was 50.2% and the “The number of animals with lesion degree +” value [8] was 3. The “The number of animals with lesion degree ++” value [8] was 1, the “The number of animals with lesion degree +++” value [8] was 4 and the “The number of animals with lesion degree ++++” value [8] was 0. The “The number of animals with lesion degree +++++” value [8] was 0, the “The number of animals with lesion degree −” value [8] was 2 and the “average score of myocardial tissue lesion degree” value [8] was 1.70 ± 1.25. For the same compound, the OD (Rat H9C2 cardiomyocytes [9]) was 0.857 ± 0.042, the “Ca^2+” value [10] was 0.057 ± 0.011 mmol/gprot and the OD (H9C2 cardiomyocytes [11]; 10 μM) was 0.522 ± 0.061.
For `Cc1c(O)c(C)c2occ(Cc3ccc4c(c3)OCO4)c(=O)c2c1O` [methyl ophiopogonone A, reference compound], the OD (Rat H9C2 cardiomyocytes [1]; 1 μM) was 0.781 ± 0.029, the OD (Rat H9C2 cardiomyocytes [1]; 5 μM) was 0.801 ± 0.045 and the OD (Rat H9C2 cardiomyocytes [1]; 10 μM) was 0.724 ± 0.024^(p = 0.09). It also gave a Cell survival rate (Rat H9C2 cardiomyocytes [1]; 1 µM) of 64.63%, a Cell survival rate (Rat H9C2 cardiomyocytes [1]; 5 µM) of 66.28% and a Cell survival rate (Rat H9C2 cardiomyocytes [1]; 10 µM) of 59.89%. For the same compound, the OD (Rat H9C2 cardiomyocytes [9]) was 0.833 ± 0.041, the Cell viability (Rat H9C2 cardiomyocytes [9]; rat, h9c2 cells, 24 h, 10 µM) was 77.40% and the OD (H9C2 cardiomyocytes [11]; 1 μM) was 0.540 ± 0.034. For the same compound, the OD (H9C2 cardiomyocytes [11]; 5 μM) was 0.501 ± 0.042, the OD (H9C2 cardiomyocytes [11]; 10 μM) was 0.581 ± 0.054 and the Cell viability (H9C2 cardiomyocytes [11]; 1 µM) was 51.93%. For the same compound, the Cell viability (H9C2 cardiomyocytes [11]; 5 µM) was 48.17% and the Cell viability (H9C2 cardiomyocytes [11]; 10 µM) was 55.82%.
`Cc1c(O)cc2occ(Cc3ccc4c(c3)OCO4)c(=O)c2c1O` [Formula III] showed an OD (Rat H9C2 cardiomyocytes [1]; 1 μM) of 0.815 ± 0.041, an OD (Rat H9C2 cardiomyocytes [1]; 5 μM) of 0.792 ± 0.061 and an OD (Rat H9C2 cardiomyocytes [1]; 10 μM) of 0.750 ± 0.065. It also gave a viability at 1 µM (Rat H9C2 cardiomyocytes [2]) of 67.4%, a viability at 5 µM (Rat H9C2 cardiomyocytes [2]) of 65.5% and a viability at 10 µM (Rat H9C2 cardiomyocytes [2]) of 62.1%. The viability at 0.1 µM (H9C2 cardiomyocytes [7]) was 53.1%, the viability at 0.3 µM (H9C2 cardiomyocytes [7]) was 48.1% and the viability at 1 µM (H9C2 cardiomyocytes [7]) was 53.4%. For the same compound, the viability at 3 µM (H9C2 cardiomyocytes [7]) was 55.8%, the viability at 5 µM (H9C2 cardiomyocytes [7]) was 52.2% and the viability at 10 µM (H9C2 cardiomyocytes [7]) was 50.6%. The OD (H9C2 cardiomyocytes [11]; 0.1 μM) was 0.552 ± 0.067, the OD (H9C2 cardiomyocytes [11]; 0.3 μM) was 0.500 ± 0.062 and the OD (H9C2 cardiomyocytes [11]; 1 μM) was 0.555 ± 0.053. It also gave an OD (H9C2 cardiomyocytes [11]; 3 μM) of 0.580 ± 0.069, an OD (H9C2 cardiomyocytes [11]; 5 μM) of 0.543 ± 0.037 and an OD (H9C2 cardiomyocytes [11]; 10 μM) of 0.527 ± 0.047.
